In patent US11629171B2, “Beta-hairpin peptidomimetics” (POLYPHOR AG, priority 2017, dated 2023):
In brackets after ≈: the same amount, converted by molar mass. Where a SMILES comes first, the peptide text is derived from it. Bridges are numbered along the chain shown (N, C = ends). Roman numbers before positions name the chains, in order. [ ]: non-standard residue; d: D form. Thr(ol) = C[C@@H](O)[C@H](N)CO; Pen = CC(C)(S)[C@H](N)C(=O)O; Tle = CC(C)(C)[C@H](N)C(=O)O; Hiv = CC(C)[C@H](O)C(=O)O; dDab = NCC[C@@H](N)C(=O)O; Orn = NCCC[C@H](N)C(=O)O; Dab = NCC[C@H](N)C(=O)O; Dap = NC[C@H](N)C(=O)O

Tests used:
Format in all cases: cell-based
[1] = tested on: human red blood cells (hRBC); assay: Hemolysis; conditions: red cells of human, 1 h, 200
Procedure, shortened: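 Washed fresh hRBC (20% v/v) were incubated with peptides at 200 μg/mL for 1 h at 37° C with shaking at 300 rpm. Supernatant OD540 was read after centrifugation and dilution, blank-corrected, and expressed as percent of the 2% Triton X-100 (100% lysis) control; PBS with 10% water gave 0%.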

[2] = tested on: Acinetobacter baumannii DSM 30008; conditions: DSM 30008
Procedure, shortened: (§1)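 CLSI broth microdilution in cation-adjusted Mueller-Hinton II broth with 0.002% polysorbate 80 (final), inoculum appr. 10^6 CFU/mL, peptides in serial two-fold dilutions. MIC (μg/mL) is the lowest concentration without visible growth after 18-20 h at 35° C.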

[3] = tested on: Pseudomonas aeruginosa ATCC 27853; conditions: ATCC 27853
Procedure, shortened: as §1

[4] = tested on: Klebsiella pneumoniae 968733; conditions: 968733
Procedure, shortened: as §1

[5] = tested on: Enterobacter cloacae 848840; conditions: 848840
Procedure, shortened: as §1

[6] = tested on: Klebsiella pneumoniae SSI #3010; conditions: SSI #3010
Procedure, shortened: as §1

[7] = tested on: Acinetobacter baumannii 872842; conditions: 872842
Procedure, shortened: as §1

Escherichia coli 926415 = conditions: 926415
Procedure, shortened: as §1

[8] = tested on: Escherichia coli ATCC 25922; conditions: ATCC 25922
Procedure, shortened: as §1

MIC [2] [µg/mL] | MIC [3] [µg/mL] | MIC [4] [µg/mL] | MIC [5] [µg/mL] | MIC [6] [µg/mL] | MIC [7] [µg/mL] | MIC (Escherichia coli 926415) [µg/mL] | MIC [8] [µg/mL] | Structure (SMILES) | Hemolysis at 200 μg/mL [1] [%]
0.125 (≈ 0.0534 µM) | 0.25 (≈ 0.107 µM) | 2 (≈ 0.854 µM) | 0.5 (≈ 0.214 µM) | 0.25 (≈ 0.107 µM) | 0.5 (≈ 0.214 µM) | 1 (≈ 0.427 µM) | 0.0625 (≈ 0.0267 µM) | CC(C)C[C@@H]1NC(=O)[C@@H](CC(C)C)NC(=O)[C@H](CCN)NC(=O)[C@@H](NC(=O)[C@H](CN)NC(=O)[C@@H](NC(=O)[C@H](CCN)NC(=O)CC[C@@H]2NC(=O)CNC(=O)[C@H](CCCN)NC(=O)[C@@H](NC(=O)[C@H](Cc3ccc(O)cc3)NC(=O)[C@@H](NC(=O)[C@@H](O)C(C)C)[C@@H](C)O)CSSC[C@@H](C(=O)N[C@H](C(=O)N[C@@H](C)C(=O)N[C@H](CO)[C@@H](C)O)C(C)(C)C)NC(=O)[C@H](Cc3c[nH]c4ccccc34)NC2=O)[C@@H](C)O)CCNC(=O)[C@H]([C@@H](C)O)NC(=O)[C@H](CCN)NC(=O)[C@H](CCN)NC1=O [Ex. 212] (I: H-[Hiv]TYC[Orn]GEWC[Tle]A[Thr(ol)] / II: [Dab]T[Dap][Dab][Dab][dL]L[Dab][Dab]T; disulfide I:4-I:9; amide I:7-II:N; lactam II:4-II:C) | 1
0.0625 (≈ 0.0268 µM) | 0.25 (≈ 0.107 µM) | 0.5 (≈ 0.215 µM) | 1 (≈ 0.43 µM) | 0.125 (≈ 0.0537 µM) | 0.125 (≈ 0.0537 µM) | 0.5 (≈ 0.215 µM) | 0.125 (≈ 0.0537 µM) | CC(C)C[C@@H]1NC(=O)[C@@H](CC(C)C)NC(=O)[C@H](CCN)NC(=O)[C@@H](NC(=O)[C@H](CN)NC(=O)[C@@H](NC(=O)[C@H](CCN)NC(=O)CC[C@@H]2NC(=O)[C@@H](CCN)NC(=O)CNC(=O)[C@@H](NC(=O)[C@H](Cc3ccc(O)cc3)NC(=O)[C@@H](NC(=O)[C@@H](O)C(C)C)[C@@H](C)O)CSSC[C@@H](C(=O)N[C@H](C(=O)N[C@@H](C)C(=O)N[C@H](CO)[C@@H](C)O)C(C)(C)C)NC(=O)[C@H](Cc3c[nH]c4ccccc34)NC2=O)[C@@H](C)O)CCNC(=O)[C@H]([C@@H](C)O)NC(=O)[C@H](CCN)NC(=O)[C@H](CCN)NC1=O [Ex. 213] (I: H-[Hiv]TYCG[dDab]EWC[Tle]A[Thr(ol)] / II: [Dab]T[Dap][Dab][Dab][dL]L[Dab][Dab]T; disulfide I:4-I:9; amide I:7-II:N; lactam II:4-II:C) | <1
0.125 (≈ 0.0537 µM) | 0.5 (≈ 0.215 µM) | 0.5 (≈ 0.215 µM) | 8 (≈ 3.44 µM) | 0.25 (≈ 0.107 µM) | 0.5 (≈ 0.215 µM) | 0.5 (≈ 0.215 µM) | 0.0625 (≈ 0.0268 µM) | CC(C)C[C@@H]1NC(=O)[C@@H](CC(C)C)NC(=O)[C@H](CCN)NC(=O)[C@@H](NC(=O)[C@H](CN)NC(=O)[C@@H](NC(=O)[C@H](CCN)NC(=O)CC[C@H]2NC(=O)[C@@H](CCN)NC(=O)CNC(=O)[C@@H](NC(=O)[C@H](Cc3ccc(O)cc3)NC(=O)[C@@H](NC(=O)[C@@H](O)C(C)C)[C@@H](C)O)CSSC[C@@H](C(=O)N[C@H](C(=O)N[C@@H](C)C(=O)N[C@H](CO)[C@@H](C)O)C(C)(C)C)NC(=O)[C@H](Cc3c[nH]c4ccccc34)NC2=O)[C@@H](C)O)CCNC(=O)[C@H]([C@@H](C)O)NC(=O)[C@H](CCN)NC(=O)[C@H](CCN)NC1=O [Ex. 214] (I: H-[Hiv]TYCG[dDab][dE]WC[Tle]A[Thr(ol)] / II: [Dab]T[Dap][Dab][Dab][dL]L[Dab][Dab]T; disulfide I:4-I:9; amide I:7-II:N; lactam II:4-II:C) | <1
0.03125 (≈ 0.013 µM) | 0.125 (≈ 0.0518 µM) | 0.125 (≈ 0.0518 µM) | 0.125 (≈ 0.0518 µM) | 0.0625 (≈ 0.0259 µM) | 0.0625 (≈ 0.0259 µM) | 0.125 (≈ 0.0518 µM) | 0.03125 (≈ 0.013 µM) | CC(=O)N[C@H](C(=O)N[C@H](C(=O)N[C@@H](Cc1ccc(O)cc1)C(=O)N[C@H]1CSSC[C@@H](C(=O)N[C@H](C(=O)N[C@@H](C)C(=O)N[C@H](C(N)=O)[C@@H](C)O)C(C)(C)C)NC(=O)[C@H](Cc2c[nH]c3ccccc23)NC(=O)[C@H](CO)NC(=O)[C@@H](CCN)NC(=O)[C@H](CCC(=O)N[C@@H](CCN)C(=O)N[C@H](C(=O)N[C@@H](CN)C(=O)N[C@H]2CCNC(=O)[C@H]([C@@H](C)O)NC(=O)[C@H](CCN)NC(=O)[C@H](CCN)NC(=O)[C@H](CC(C)C)NC(=O)[C@@H](CC(C)C)NC(=O)[C@H](CCN)NC2=O)[C@@H](C)O)NC1=O)[C@@H](C)O)C(C)C [Ex. 220] (I: Ac-VTYCE[dDab]SWC[Tle]AT-NH2 / II: [Dab]T[Dap][Dab][Dab][dL]L[Dab][Dab]T; disulfide I:4-I:9; amide I:5-II:N; lactam II:4-II:C) | <1
0.0625 (≈ 0.0253 µM) | 0.125 (≈ 0.0506 µM) | 0.25 (≈ 0.101 µM) | 0.125 (≈ 0.0506 µM) | 0.125 (≈ 0.0506 µM) | 0.0625 (≈ 0.0253 µM) | 0.125 (≈ 0.0506 µM) | 0.0625 (≈ 0.0253 µM) | CC(=O)N[C@H](C(=O)N[C@H](C(=O)N[C@@H](Cc1ccc(O)cc1)C(=O)N[C@H]1CSSC(C)(C)[C@@H](C(=O)N[C@H](C(=O)N[C@H](C(=O)N[C@H](C(N)=O)[C@@H](C)O)[C@@H](C)O)C(C)(C)C)NC(=O)[C@H](Cc2c[nH]c3ccccc23)NC(=O)[C@H](CO)NC(=O)[C@@H](CCN)NC(=O)[C@H](CCC(=O)N[C@@H](CCN)C(=O)N[C@H](C(=O)N[C@@H](CN)C(=O)N[C@H]2CCNC(=O)[C@H]([C@@H](C)O)NC(=O)[C@H](CCN)NC(=O)[C@H](CCN)NC(=O)[C@H](CC(C)C)NC(=O)[C@@H](CC(C)C)NC(=O)[C@H](CCN)NC2=O)[C@@H](C)O)NC1=O)[C@@H](C)O)C(C)C [Ex. 221] (I: Ac-VTYCE[dDab]SW[Pen][Tle]TT-NH2 / II: [Dab]T[Dap][Dab][Dab][dL]L[Dab][Dab]T; disulfide I:4-I:9; amide I:5-II:N; lactam II:4-II:C) | 2
0.0625 (≈ 0.0254 µM) | 0.125 (≈ 0.0509 µM) | 0.25 (≈ 0.102 µM) | 0.125 (≈ 0.0509 µM) | 0.0625 (≈ 0.0254 µM) | 0.0625 (≈ 0.0254 µM) | 0.25 (≈ 0.102 µM) | 0.03125 (≈ 0.0127 µM) | CC(=O)N[C@H](C(=O)N[C@H](C(=O)N[C@@H](Cc1ccc(O)cc1)C(=O)N[C@H]1CSSC(C)(C)[C@@H](C(=O)N[C@H](C(=O)N[C@H](C(=O)N[C@H](C(N)=O)[C@@H](C)O)[C@@H](C)O)C(C)C)NC(=O)[C@H](Cc2c[nH]c3ccccc23)NC(=O)[C@H](CO)NC(=O)[C@@H](CCN)NC(=O)[C@H](CCC(=O)N[C@@H](CCN)C(=O)N[C@H](C(=O)N[C@@H](CN)C(=O)N[C@H]2CCNC(=O)[C@H]([C@@H](C)O)NC(=O)[C@H](CCN)NC(=O)[C@H](CCN)NC(=O)[C@H](CC(C)C)NC(=O)[C@@H](CC(C)C)NC(=O)[C@H](CCN)NC2=O)[C@@H](C)O)NC1=O)[C@@H](C)O)C(C)C [Ex. 222] (I: Ac-VTYCE[dDab]SW[Pen]VTT-NH2 / II: [Dab]T[Dap][Dab][Dab][dL]L[Dab][Dab]T; disulfide I:4-I:9; amide I:5-II:N; lactam II:4-II:C) | 1
